# Ends that are not written are not given here.
# Assays:
# HCjE cells = assay: Goblet cell study: PAS staining of stratified HCjE cells; type: cell-based, human; conditions: 200 ng/ml or 2000 ng/ml, compared to vehicle-treated HCjE cells
# Description: (§1) HCjE cells were maintained in complete keratinocyte serum free medium (KSFM; Invitrogen, Carlsbad, CA) in petri dishes coated with type 1 collagen. When the HCjE cells reached 50% confluence, the culture medium was replaced with growth medium (1:1 DMEM/F12:complete KSFM). When cells reached 100% confluence, the cells were fed with stratification medium (DMEM/F12+10% FBS) with or without the CXCL10p peptide (either 200 ng/ml or 2000 ng/ml). Control cells were fed with the medium supplemented with an equivalent volume of the vehicle (PBS) in which the peptide was dissolved. This medium with or without peptide was replaced every other day for 14 days, after which the cells were either stained with periodic acid-Schiff's (PAS) reagent following the standard protocol, or subjected to total RNA isolation, and qRT-PCR for MUC5AC transcripts with TATA-box binding protein (TBP) as the endogenous control.
# To further examine the effects of the CXCR3 activating peptide on goblet cell functioning in vitro, stratified HCjE cells are treated with 200 ng/ml CXCR3 activating peptide, 2000 ng/ml CXCR3 activating peptide, or vehicle. Cells are then stained with periodic acid-Schiff's (PAS) reagent.
# MUC5AC transcripts = assay: Goblet cell study: qRT-PCR for MUC5AC transcripts in HCjE cells; type: cell-based, human; conditions: 200 ng/ml or 2000 ng/ml, relative to vehicle only
# Description: as §1
# Control and CXCR3 activating peptide-treated HCjE cells are also examined for expression of MUC5AC transcripts by qRT-PCR.
# [1] = tested on: TNFα mRNA in human conjunctival epithelial (HCjE) cells; assay: TNFα-mediated inflammation in HCjE cells (qRT-PCR); type: cell-based
# Description: Primary human conjunctival epithelial (HCjE) cells were seeded at 40,000 cells per well in a 96 well flat bottom plate. After overnight adhesion in Keratinocyte-Serum Free Media (cK-SFM), the cells were washed and exposed to starvation media (SFM) for a further 24 hours. At this time the cells were exposed to TNFα (5 ng/ml) in the presence or absence of CXCL10p peptide (200 ng/ml). After 4 hours, the cells were harvested and tested for TNFα mRNA levels with GAPDH mRNA as the control for equalization.
# [2] = tested on: environmental dry eye model; assay: Schirmer tear test (STT) in rabbit environmental dry eye model; type: in vivo, New Zealand white rabbits; conditions: rabbits, 21 days treatment
# Description: The 22-mer CXCL10p peptide (OH-[…]-NH2; SEQ ID NO: 5) was manufactured by PolyPeptide Inc. (San Diego, CA, USA) and purified to >95% purity as a lyophilized powder. The peptide was delivered in three different formulations. For subconjunctival injection, 3 μg of the peptide was dissolved in 100 μl of sterile PBS for weekly injections. For eye drops, 10 μg of the peptide was dissolved in 50 μl of sterile PBS for twice daily drops (BID). For the slow-release formulation, 10 μg of the peptide was dissolved in 50 μl of coacervate for BID inoculation. The control was 50 μl of sterile PBS applied BID. The coacervate is a heparin and PEAD (1:3.6) mixture with each component at a 10 mg/mL concentration in water. The CXCL10p peptide was added at a 1:10 dilution in PBS to the final concentration.
# The environmental dry eye model was used to test the CXCL10p peptide. Female New Zealand white rabbits (8 per group) were used at 125-175 days old (weighing 3-5 kg) at the time of induction. For induction of dry eye, all animals were dosed with atropine sulfate (1%) in both eyes (OU) twice daily (BID) for 2-3 weeks prior to test article administration to induce KCS. In addition, humidity in the animals' housing room was maintained at ~20% throughout the study to promote eye dryness. Non-responder animals were removed from the study at the end of the induction phase. […]
substance,measurement,setting,value
OH-PESKAIKNLLKAVHKEMSKRSP-NH2 [CXCL10p peptide],frequency of intense magenta stained cell clusters (goblet cell clusters),HCjE cells,increase in the frequency
same,staining with PAS reagent (proteoglycan content),HCjE cells,more intense staining with PAS reagent
same,levels of MUC5AC transcripts,MUC5AC transcripts,increased levels of MUC5AC transcripts
same,reduction of TNFα mRNA levels,"[1]; HCjE cells, TNFα 5 ng/ml, peptide 200 ng/ml, 4 hours",approximately one quarter
same,TNFα mRNA levels,"[1]; HCjE challenged with TNFα, concurrent exposure to peptide",dampened the TNFα mRNA levels in a reproducible and statistically significant manner
same,amount of aqueous tear (STT),[2],uncorrected

# Source: US20260201006A1, “COACERVATE FORMULATIONS OF CXCR-ACTIVATING PEPTIDES FOR CONTROLLED RELEASE IN OPHTHALMIC AND TOPICAL TREATMENTS” (University of Pittsburgh - Of the Commonwealth System of …, priority 2022, published 2026)
